We go through one substance from patent US12497376B2, “Compound [2-(dimethylamino)-2-phenylbutyl]-3,4,5-trimethoxybenzoate 4-methyl-2H-chromen-2-on-7-yl sulphate and use thereof” (LTD “VALENTA—INTELLEKT”, priority 2020, dated 2025).

This assay has as its system male mice of the C57 BL/6 line. Description: von Frey filament test (mechanical allodynia) in the model of visceral pain induced by TNBS colitis. The following applies: for Mechanical allodynia intensity, g (mean ± standard error of the mean): oral once daily from day 3 after TNBS, von Frey test on Day 28, placebo 2.0 ± 0.5. It is filed as in vivo. The protocol:
In the experiments, 13-week old male mice of the C57 BL/6 line were used. Sixty (60) animals were randomly distributed into four (4) groups of equal number (N=15) characterized by the dosage of the administered compound.
The study was conducted for three different doses of the compound of Formula I. A group of mice receiving only the carrier (starch solution) served as the control group (placebo group).
Colitis was induced by introducing 0.1 mL of TNBS (trinitrobenzene sulfonate) (130 μg/mL in 30% EtOH) into the large intestine through a polyethylene catheter introduced by 3 cm into the anus of mice anesthetized with isoflurane. Then, the mice were arranged individually, and changes in the body weight, appearance and behavior were observed daily. A histological study of the mucosa structure, cell infiltrate, intestinal crypt abscesses and goblet cells confirmed significant damage caused by the TNBS introduction on Day 3 and, in a significant degree, on Day 7 [6].
The preparations were introduced orally in three days after the TNBS introduction and then once daily for the whole study period.
To assess pain behavior, the von Frey test with filaments (appearance of mechanical allodynia) on Day 28 after the TNBS introduction.
The animals were put into an acrylic chamber (15×15×15 cm) raised above the ground with a wire mesh on the bottom. Before starting the tests, the animals were left in the chamber for 5-10 minutes for adaptation. Then, the abdominal cavity of the animal was stimulated with von Frey calibrated filaments (or fibers) (BIOSEB, USA). The filaments were a set of 10 standard plastic fibers of increasing diameters. The fiber rigidity, which is expressed as a minimal force required to flex a fiber, was increased in such calibration logarithmically, with absolute values from 0.6 g to 26 g. Sensitivity threshold of each mouse was determined in three repeats (6 touches in total with 10-second interval for each filament; the interval between successive touches with different filaments was 2 minutes). The abdominal surface was poked with a force required to flex the fiber, and the fiber was held in that position for 6-8 seconds. The positive response was recorded, if the animal sharply winced during touching. A sensitivity threshold was determined by a minimal pressure causing the wincing reflex reaction (4 times of 6 touches).
An average score received in a corresponding test and a standard error of the mean for each value were calculated for each study group (n=15).

In the case of “[2-(dimethylamino)-2-phenylbutyl]-3,4,5-trimethoxybenzoate 4-methyl-2H-chromen-2-on-7-yl sulphate [Compound of Formula I]”, the “Mechanical allodynia intensity, g (mean ± standard error of the mean)” value by setting is: (dose 10 mg/day (recalculated for a human), group 2, n=15) 10.0 ± 0.5 g; (dose 300 mg/day (recalculated for a human), group 3, n=15) 21.4 ± 0.9 g; (dose 1,800 mg/day (recalculated for a human), group 4, n=15) 23.1 ± 1.0 g. For the same substance, the “Indices of mechanical allodynia versus placebo” value (groups receiving the compound (10, 300, 1,800 mg/day), p < 0.05 versus placebo) is recorded as “significantly lower”.
